One experiment has as its system HEK293. Description: Cytotoxicity against human HEK293 cells assessed as cell viability after 24 hrs by cell titer-blue assay. The experiment is classed as cell-based. As to conditions: HEK293, 24 h.
For experiment [1], the system named is Mycobacterium tuberculosis. Description: Antimycobacterial activity against Mycobacterium tuberculosis H37Ra ATCC 25177 assessed as growth inhibition after 24 to 168 hrs by microplate resazurin assay. The experiment is classed as functional, organism-based.

≈ marks a conversion by molar mass, not a printed value.

Turning to `CC1(C)CC[C@]2(C(=O)O)CC[C@]3(C)C(=CC[C@@H]4[C@@]5(C)CC[C@H](O)C(C)(C)[C@@H]5CC[C@]43C)[C@@H]2C1` [OLEANOLIC_ACID], the IC50 with HEK293 was 329 µM. In experiment [1], the concentration for half-maximal inhibition (IC50) is 214 µM and the MIC90 is > 876 µM.
Take `CC1(C)CC[C@]2(CO)CC[C@]3(C)C(=CC[C@@H]4[C@@]5(C)CC[C@H](O)C(C)(C)[C@@H]5CC[C@]43C)[C@@H]2C1` [ERYTHRODIOL]: the IC50 was 613 µM with HEK293 and 157 µM in experiment [1]. Further, the MIC90 in experiment [1] is > 903 µM.
As for `COc1cc(CCc2ccccc2O)cc(OC)c1OC`, the concentration for half-maximal inhibition (IC50) with HEK293 was 113 µM. In experiment [1], the half-maximal inhibitory concentration (IC50) was found to be 179 µM and the MIC90 was 694 µM (≈ 200 µg/mL).
On the same counts, the results for `O=C(/C=C/c1ccccc1)c1ccc(O)cc1O` [2',4'-DIHYDROXYCHALCONE] are 109 µM, 23.8 µM and 104 µM (≈ 25 µg/mL).
In the same order, the values of `COc1c(O)cc2c(c1OC)-c1c(O)cccc1CC2` are 289 µM, 113 µM and 734 µM (≈ 200 µg/mL).
For `COc1c(O)cc2c(c1OC)Oc1ccccc1CC2`, the IC50 in the experiment with HEK293 was 167 µM. For the same compound, in experiment [1], the IC50 turned out to be 94.4 µM and the MIC90 turned out to be 367 µM (≈ 99.9 µg/mL).
As to `COc1cc2c(c(O)c1OC)Oc1ccccc1CC2`, the IC50 in the experiment with HEK293 came to 355 µM. In addition, in experiment [1], the IC50 is 105 µM and the MIC90 was determined as 367 µM (≈ 99.9 µg/mL).
In the case of `O=C(CCc1ccccc1)c1ccc(O)cc1O`, the IC50 in the experiment with HEK293 turned out to be 249 µM. In experiment [1], the IC50 was 32.8 µM and the MIC90 is 206 µM (≈ 49.9 µg/mL).
For `COc1cc(CCc2ccccc2O)cc(O)c1OC`, the concentration for half-maximal inhibition (IC50) in the experiment with HEK293 came to 298 µM. In experiment [1], the IC50 worked out at 900 µM and the MIC90 is > 1460 µM.

(Values after ChEMBL document CHEMBL3745636, “Dibenz[b,f]oxepin and Antimycobacterial Chalcone Constituents of Empetrum nigrum” (J Nat Prod, 2015).)
